Among the data in US9340590B2 (priority 2011, dated 2016) are IC50 values, retold here.

Positions of bridges follow the written chain, without caps; N, C: chain ends. Non-standard residues stand in square brackets, D forms with d. Residues, ends and D or L forms follow the SMILES beside them. *: point of attachment. Pent4ynoyl = C#CCCC(=O)*; Nva = CCC[C@H](N)C(=O)O; Abu = CC[C@H](N)C(=O)O

Holding throughout (test): cell-based
The target in experiment [1] is hNav1.7 (Homo sapiens, UniProt Q15858). The experiment is classed as cell-based. The conditions noted are these: IonWorks Quattro, use-dependent block, hNav1.7; read-out: IWQ Use Nav1.7. On the technique in general: Patch clamp records ionic current or voltage across a cell membrane.
Experiment [2] addresses hNav1.5 (Homo sapiens, UniProt Q14524). The conditions noted are these: IonWorks Quattro, use-dependent block, hNav1.5; read-out: IWQ Use Nav1.5.
Experiment [3] concerns the target hNav1.3 (Homo sapiens, UniProt Q9NY46). The conditions noted are these: IonWorks Quattro, use-dependent block, hNav1.3; read-out: IWQ Use Nav1.3.

Sequence of hNav1.3 (Q9NY46 whole entry, looked up): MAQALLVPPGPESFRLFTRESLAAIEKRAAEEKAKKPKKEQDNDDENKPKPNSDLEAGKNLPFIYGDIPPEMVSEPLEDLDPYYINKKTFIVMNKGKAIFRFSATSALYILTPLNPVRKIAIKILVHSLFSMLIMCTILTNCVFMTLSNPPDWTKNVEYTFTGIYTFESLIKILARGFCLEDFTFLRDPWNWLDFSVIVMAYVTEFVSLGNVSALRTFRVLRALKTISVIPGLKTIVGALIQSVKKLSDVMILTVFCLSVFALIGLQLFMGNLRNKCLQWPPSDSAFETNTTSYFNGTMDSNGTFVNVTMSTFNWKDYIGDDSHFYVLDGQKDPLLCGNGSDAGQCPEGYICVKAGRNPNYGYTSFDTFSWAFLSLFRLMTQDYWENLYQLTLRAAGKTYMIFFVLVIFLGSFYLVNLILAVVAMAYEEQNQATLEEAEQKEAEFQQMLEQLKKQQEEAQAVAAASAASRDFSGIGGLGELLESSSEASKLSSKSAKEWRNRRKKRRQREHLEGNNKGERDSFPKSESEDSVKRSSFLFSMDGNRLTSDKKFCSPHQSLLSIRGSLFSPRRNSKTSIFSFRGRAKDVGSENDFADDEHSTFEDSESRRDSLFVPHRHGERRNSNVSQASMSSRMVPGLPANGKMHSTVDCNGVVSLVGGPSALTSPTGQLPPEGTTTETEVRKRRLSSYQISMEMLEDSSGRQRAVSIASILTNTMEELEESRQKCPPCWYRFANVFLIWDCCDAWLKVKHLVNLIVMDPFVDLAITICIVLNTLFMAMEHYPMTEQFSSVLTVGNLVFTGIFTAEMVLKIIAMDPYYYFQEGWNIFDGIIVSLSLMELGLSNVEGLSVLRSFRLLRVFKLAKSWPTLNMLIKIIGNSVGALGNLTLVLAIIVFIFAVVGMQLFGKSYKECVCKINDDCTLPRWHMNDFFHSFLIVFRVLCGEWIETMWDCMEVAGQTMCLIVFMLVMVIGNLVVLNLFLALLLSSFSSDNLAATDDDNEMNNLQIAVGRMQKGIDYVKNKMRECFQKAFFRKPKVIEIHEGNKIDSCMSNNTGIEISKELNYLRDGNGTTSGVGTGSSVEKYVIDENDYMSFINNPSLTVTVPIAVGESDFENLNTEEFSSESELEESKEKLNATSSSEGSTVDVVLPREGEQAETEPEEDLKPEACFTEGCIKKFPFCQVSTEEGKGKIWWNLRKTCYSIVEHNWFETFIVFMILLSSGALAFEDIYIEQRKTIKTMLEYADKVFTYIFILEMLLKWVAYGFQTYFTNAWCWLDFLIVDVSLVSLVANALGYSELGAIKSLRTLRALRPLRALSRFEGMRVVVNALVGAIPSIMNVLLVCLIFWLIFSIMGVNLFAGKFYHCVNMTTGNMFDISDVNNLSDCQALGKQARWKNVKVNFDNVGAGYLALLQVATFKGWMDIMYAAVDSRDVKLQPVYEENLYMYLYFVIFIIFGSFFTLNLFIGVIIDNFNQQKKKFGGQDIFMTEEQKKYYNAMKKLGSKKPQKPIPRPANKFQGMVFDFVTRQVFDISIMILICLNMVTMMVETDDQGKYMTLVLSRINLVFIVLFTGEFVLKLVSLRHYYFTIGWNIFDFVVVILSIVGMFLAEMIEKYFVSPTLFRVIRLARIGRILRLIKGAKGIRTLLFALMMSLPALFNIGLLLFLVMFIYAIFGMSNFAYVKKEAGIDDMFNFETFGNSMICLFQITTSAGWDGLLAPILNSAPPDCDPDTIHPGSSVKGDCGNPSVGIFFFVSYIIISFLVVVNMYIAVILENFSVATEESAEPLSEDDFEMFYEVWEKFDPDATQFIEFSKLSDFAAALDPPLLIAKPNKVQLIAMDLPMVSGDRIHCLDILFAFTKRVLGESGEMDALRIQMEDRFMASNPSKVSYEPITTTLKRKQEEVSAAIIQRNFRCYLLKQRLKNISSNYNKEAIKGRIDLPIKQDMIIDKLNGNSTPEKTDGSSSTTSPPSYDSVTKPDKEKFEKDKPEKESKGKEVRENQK
Sequence of hNav1.7 (Q15858 whole entry, looked up): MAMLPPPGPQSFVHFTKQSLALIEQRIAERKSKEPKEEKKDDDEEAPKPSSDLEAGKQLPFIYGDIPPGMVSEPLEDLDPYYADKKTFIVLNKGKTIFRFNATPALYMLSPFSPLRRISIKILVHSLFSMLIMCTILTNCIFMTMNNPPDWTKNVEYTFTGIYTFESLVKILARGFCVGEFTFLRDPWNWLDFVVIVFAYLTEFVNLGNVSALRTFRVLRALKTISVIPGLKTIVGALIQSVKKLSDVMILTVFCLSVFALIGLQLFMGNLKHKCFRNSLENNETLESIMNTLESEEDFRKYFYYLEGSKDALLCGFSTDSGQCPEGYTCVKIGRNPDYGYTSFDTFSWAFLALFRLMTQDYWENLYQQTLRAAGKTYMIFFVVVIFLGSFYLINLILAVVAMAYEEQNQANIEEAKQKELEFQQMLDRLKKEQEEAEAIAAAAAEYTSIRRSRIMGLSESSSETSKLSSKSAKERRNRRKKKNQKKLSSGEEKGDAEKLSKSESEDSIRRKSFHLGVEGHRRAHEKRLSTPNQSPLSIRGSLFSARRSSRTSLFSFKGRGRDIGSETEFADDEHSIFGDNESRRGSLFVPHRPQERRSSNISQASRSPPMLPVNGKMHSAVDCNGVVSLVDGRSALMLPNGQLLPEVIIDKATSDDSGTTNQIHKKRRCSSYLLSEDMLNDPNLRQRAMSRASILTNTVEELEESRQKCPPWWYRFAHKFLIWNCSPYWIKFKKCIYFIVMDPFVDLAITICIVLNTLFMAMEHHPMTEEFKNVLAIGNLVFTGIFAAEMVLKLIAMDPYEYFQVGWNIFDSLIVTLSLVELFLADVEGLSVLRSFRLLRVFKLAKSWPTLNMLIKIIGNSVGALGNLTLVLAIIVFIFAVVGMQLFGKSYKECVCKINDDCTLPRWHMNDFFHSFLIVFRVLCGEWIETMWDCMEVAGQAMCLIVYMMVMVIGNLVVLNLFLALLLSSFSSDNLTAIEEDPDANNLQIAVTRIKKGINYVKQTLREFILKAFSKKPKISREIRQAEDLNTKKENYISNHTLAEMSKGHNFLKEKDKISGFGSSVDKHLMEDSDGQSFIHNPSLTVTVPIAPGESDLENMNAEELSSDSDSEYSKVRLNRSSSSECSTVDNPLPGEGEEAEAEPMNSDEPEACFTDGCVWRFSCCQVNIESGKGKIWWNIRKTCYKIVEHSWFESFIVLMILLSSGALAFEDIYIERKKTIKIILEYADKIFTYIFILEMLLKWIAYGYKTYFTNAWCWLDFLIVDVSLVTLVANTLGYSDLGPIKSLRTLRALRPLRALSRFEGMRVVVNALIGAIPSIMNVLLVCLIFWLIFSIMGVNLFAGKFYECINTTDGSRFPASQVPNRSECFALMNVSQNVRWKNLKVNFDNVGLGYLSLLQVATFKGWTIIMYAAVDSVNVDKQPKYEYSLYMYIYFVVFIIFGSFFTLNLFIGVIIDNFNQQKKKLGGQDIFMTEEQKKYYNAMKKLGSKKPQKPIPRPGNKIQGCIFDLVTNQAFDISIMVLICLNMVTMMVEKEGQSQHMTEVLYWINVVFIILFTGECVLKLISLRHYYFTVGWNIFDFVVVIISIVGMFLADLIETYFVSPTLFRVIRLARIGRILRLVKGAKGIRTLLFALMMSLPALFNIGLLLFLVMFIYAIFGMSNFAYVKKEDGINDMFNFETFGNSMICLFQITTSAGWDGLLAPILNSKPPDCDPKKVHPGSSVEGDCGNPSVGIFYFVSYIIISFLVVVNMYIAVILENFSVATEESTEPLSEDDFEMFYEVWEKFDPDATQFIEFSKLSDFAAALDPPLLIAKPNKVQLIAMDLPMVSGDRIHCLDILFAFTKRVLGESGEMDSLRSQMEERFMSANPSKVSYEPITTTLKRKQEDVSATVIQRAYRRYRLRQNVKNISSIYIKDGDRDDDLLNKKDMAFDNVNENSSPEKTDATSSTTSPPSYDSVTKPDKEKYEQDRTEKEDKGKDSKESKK

As to `C#CCCC(=O)NCCCC[C@@H]1NC(=O)[C@H](CC(=O)O)NC(=O)[C@@H]2CCCN2C(=O)[C@H]([C@@H](C)CC)NC(=O)[C@@H]2CSSC[C@@H]3NC(=O)[C@H](C(C)C)NC(=O)[C@H](CC(C)C)NC(=O)[C@H](CC(N)=O)NC(=O)[C@@H]4CCCN4C(=O)[C@H](CCCNC(=N)N)NC(=O)[C@H](CSSC[C@H](NC(=O)[C@@H](N)CC(=O)O)C(=O)N[C@@H](CC(C)C)C(=O)NCC(=O)N[C@@H](CCC)C(=O)N[C@@H](CC(C)C)C(=O)N[C@@H](CCCNC(=N)N)C(=O)N[C@@H](CCCCN)C(=O)N2)NC(=O)[C@H](CSSC[C@@H](C(=O)N[C@@H](CCCCN)C(=O)N[C@@H](Cc2ccc(O)cc2)C(=O)N[C@H](C(=O)N[C@@H](Cc2ccccc2)C(N)=O)C(C)C)NC(=O)[C@H](Cc2c[nH]c4ccccc24)NC(=O)[C@H](CCCNC(=N)N)NC(=O)[C@H](Cc2c[nH]cn2)NC(=O)[C@H]([C@@H](C)O)NC(=O)[C@H](CCCNC(=N)N)NC(=O)[C@H](CO)NC3=O)NC(=O)[C@H](CCCCN)NC(=O)[C@H](CC(=O)O)NC1=O` [compound 805] (H-DCLG[Nva]LRKCIPDK(Pent4ynoyl)DKCCRPNLVCSRTHRWCKYVF-NH2; disulfide 2-17, 9-23, 16-30), the figures for the IC50 in experiment [1], in experiment [2] and in experiment [3] were 310 nM, 37500 nM and 270 nM, respectively.
Turning to `C#CCCC(=O)NCCCC[C@@H]1NC(=O)[C@H](CC(=O)O)NC(=O)[C@@H]2CCCN2C(=O)[C@H]([C@@H](C)CC)NC(=O)[C@@H]2CSSC[C@@H]3NC(=O)[C@H](C(C)C)NC(=O)[C@H](CC(C)C)NC(=O)[C@H](CC(N)=O)NC(=O)[C@@H]4CCCN4C(=O)[C@H](CCCNC(=N)N)NC(=O)[C@H](CSSC[C@H](NC(=O)[C@@H](N)CC(=O)O)C(=O)N[C@@H](CC(C)C)C(=O)NCC(=O)N[C@@H](CCC)C(=O)N[C@@H](CC(C)C)C(=O)N[C@@H](CCCNC(=N)N)C(=O)N[C@@H](CCCCN)C(=O)N2)NC(=O)[C@H](CSSC[C@@H](C(=O)N[C@@H](CCCCN)C(=O)N[C@@H](Cc2ccc(O)cc2)C(=O)N[C@H](C(=O)N[C@@H](Cc2ccccc2)C(N)=O)C(C)C)NC(=O)[C@H](Cc2c[nH]c4ccccc24)NC(=O)[C@H](CCCCN)NC(=O)[C@H](Cc2c[nH]cn2)NC(=O)[C@H]([C@@H](C)O)NC(=O)[C@H](CCCNC(=N)N)NC(=O)[C@H](CO)NC3=O)NC(=O)[C@H](CCCCN)NC(=O)[C@H](CC(=O)O)NC1=O` [compound 806] (H-DCLG[Nva]LRKCIPDK(Pent4ynoyl)DKCCRPNLVCSRTHKWCKYVF-NH2; disulfide 2-17, 9-23, 16-30), the results for the IC50 in experiment [1], in experiment [2] and in experiment [3] were 290 nM, 34200 nM and 390 nM, respectively.
Take `C#CCCC(=O)N[C@@H](CC(=O)O)C(=O)N[C@H]1CSSC[C@@H]2NC(=O)[C@@H]3CSSC[C@@H](C(=O)N[C@@H](CCCCN)C(=O)N[C@@H](Cc4ccc(O)cc4)C(=O)N[C@H](C(=O)N[C@@H](Cc4ccccc4)C(N)=O)C(C)C)NC(=O)[C@H](Cc4c[nH]c5ccccc45)NC(=O)[C@H](CCCNC(=N)N)NC(=O)[C@H](Cc4c[nH]cn4)NC(=O)[C@H]([C@@H](C)O)NC(=O)[C@H](CCCNC(=N)N)NC(=O)[C@H](CO)NC(=O)[C@H](CSSC[C@H](NC(=O)[C@H](CCCCN)NC(=O)[C@H](CCCNC(=N)N)NC(=O)[C@H](CC(C)C)NC(=O)[C@H](CC)NC(=O)CNC(=O)[C@H](CC(C)C)NC1=O)C(=O)N[C@@H]([C@@H](C)CC)C(=O)N1CCC[C@H]1C(=O)N[C@@H](CC(=O)O)C(=O)N[C@@H](CC)C(=O)N[C@@H](CC(=O)O)C(=O)N[C@@H](CCCCN)C(=O)N3)NC(=O)[C@H](C(C)C)NC(=O)[C@H](CC(C)C)NC(=O)[C@H](CC(N)=O)NC(=O)[C@@H]1CCCN1C(=O)[C@H](CCCNC(=N)N)NC2=O` [compound 807] (Pent4ynoyl-DCLG[Abu]LRKCIPD[Abu]DKCCRPNLVCSRTHRWCKYVF-NH2; disulfide 2-17, 9-23, 16-30): the results for the IC50 in experiment [1], in experiment [2] and in experiment [3] were 540 nM, 36800 nM and 900 nM, respectively.
For `C#CCCC(=O)NCCCC[C@@H]1NC(=O)[C@H](CC(=O)O)NC(=O)[C@@H]2CCCN2C(=O)[C@H]([C@@H](C)CC)NC(=O)[C@@H]2CSSC[C@@H]3NC(=O)[C@H](C(C)C)NC(=O)[C@H](CC(C)C)NC(=O)[C@H](CC(N)=O)NC(=O)[C@@H]4CCCN4C(=O)[C@H](CCCNC(=N)N)NC(=O)[C@H](CSSC[C@H](NC(=O)[C@@H](N)CC(=O)O)C(=O)N[C@@H](CC(C)C)C(=O)NCC(=O)N[C@@H](CC)C(=O)N[C@@H](CC(C)C)C(=O)N[C@@H](CCCNC(=N)N)C(=O)N[C@@H](CCCCN)C(=O)N2)NC(=O)[C@H](CSSC[C@@H](C(=O)N[C@@H](CCCCN)C(=O)N[C@@H](Cc2ccc(O)cc2)C(=O)N[C@H](C(=O)N[C@@H](Cc2ccccc2)C(N)=O)C(C)C)NC(=O)[C@H](Cc2c[nH]c4ccccc24)NC(=O)[C@H](CCC(=O)O)NC(=O)[C@H](Cc2c[nH]cn2)NC(=O)[C@H]([C@@H](C)O)NC(=O)[C@H](CCCNC(=N)N)NC(=O)[C@H](CO)NC3=O)NC(=O)[C@H](CCCCN)NC(=O)[C@H](CC(=O)O)NC1=O` [compound 808] (H-DCLG[Abu]LRKCIPDK(Pent4ynoyl)DKCCRPNLVCSRTHEWCKYVF-NH2; disulfide 2-17, 9-23, 16-30), the IC50 in experiment [1] was 1800 nM; in experiment [2] it was greater than 5000 nM; in experiment [3], 4100 nM.
In the case of `CC[C@H](C)[C@@H]1NC(=O)[C@@H]2CSSC[C@@H]3NC(=O)[C@H](C(C)C)NC(=O)[C@H](CC(C)C)NC(=O)[C@H](CC(N)=O)NC(=O)[C@@H]4CCCN4C(=O)[C@H](CCCNC(=N)N)NC(=O)[C@H](CSSC[C@H](NC(=O)[C@H](CC(=O)O)NC(=O)[C@H](CO)NC(=O)CN)C(=O)N[C@@H](CC(C)C)C(=O)NCC(=O)N[C@@H](C)C(=O)N[C@@H](Cc4ccccc4)C(=O)N[C@@H](CCCNC(=N)N)C(=O)N[C@@H](CCCCN)C(=O)N2)NC(=O)[C@H](CSSC[C@@H](C(=O)N[C@@H](CCCCN)C(=O)N[C@@H](Cc2ccc(O)cc2)C(=O)N[C@H](C(=O)N[C@@H](Cc2ccccc2)C(N)=O)C(C)C)NC(=O)[C@H](Cc2c[nH]c4ccccc24)NC(=O)[C@H](CCCNC(=N)N)NC(=O)[C@H](Cc2c[nH]cn2)NC(=O)[C@H]([C@@H](C)O)NC(=O)[C@H](CCCNC(=N)N)NC(=O)[C@H](CO)NC3=O)NC(=O)[C@H](CCCCN)NC(=O)[C@H](CC(=O)O)NC(=O)[C@H](CC(N)=O)NC(=O)[C@H](CC(=O)O)NC(=O)[C@@H]2CCCN2C1=O` [compound 811] (H-GSDCLGAFRKCIPDNDKCCRPNLVCSRTHRWCKYVF-NH2; disulfide 4-19, 11-25, 18-32), the IC50 is 300 nM in experiment [1], greater than 5000 nM in experiment [2] and 300 nM in experiment [3].
`CC[C@H](C)[C@@H]1NC(=O)[C@@H]2CSSC[C@@H]3NC(=O)[C@H](C(C)C)NC(=O)[C@H](CC(C)C)NC(=O)[C@H](CC(N)=O)NC(=O)[C@@H]4CCCN4C(=O)[C@H](CCCNC(=N)N)NC(=O)[C@H](CSSC[C@H](NC(=O)[C@H](CC(=O)O)NC(=O)[C@H](CO)NC(=O)CN)C(=O)N[C@@H](CC(C)C)C(=O)NCC(=O)N[C@@H](C)C(=O)N[C@@H](CC(C)C)C(=O)N[C@@H](CCCNC(=N)N)C(=O)N[C@@H](CCCCN)C(=O)N2)NC(=O)[C@H](CSSC[C@@H](C(=O)N[C@@H](CCCCN)C(=O)N[C@@H](Cc2ccc(O)cc2)C(=O)N[C@H](C(=O)N[C@@H](Cc2ccccc2)C(N)=O)C(C)C)NC(=O)[C@H](Cc2c[nH]c4ccccc24)NC(=O)[C@H](CCCNC(=N)N)NC(=O)[C@H](Cc2c[nH]cn2)NC(=O)[C@H]([C@@H](C)O)NC(=O)[C@H](CCCNC(=N)N)NC(=O)[C@H](CO)NC3=O)NC(=O)[C@H](CCCCN)NC(=O)[C@H](CC(=O)O)NC(=O)[C@H](CC(N)=O)NC(=O)[C@H](CC(=O)O)NC(=O)[C@@H]2CCCN2C1=O` [compound 812] (H-GSDCLGALRKCIPDNDKCCRPNLVCSRTHRWCKYVF-NH2; disulfide 4-19, 11-25, 18-32): the results for the IC50 in experiment [1], in experiment [2] and in experiment [3] were 200 nM, greater than 5000 nM and 200 nM, respectively.
On to `CC[C@H](C)[C@@H]1NC(=O)[C@@H]2CSSC[C@@H]3NC(=O)[C@H](C(C)C)NC(=O)[C@H](CC(C)C)NC(=O)[C@H](CC(N)=O)NC(=O)[C@@H]4CCCN4C(=O)[C@H](CCCNC(=N)N)NC(=O)[C@H](CSSC[C@H](NC(=O)[C@@H](N)CC(=O)O)C(=O)N[C@@H](CC(C)C)C(=O)NCC(=O)N[C@@H](C)C(=O)N[C@@H](Cc4ccccc4)C(=O)N[C@@H](CCCNC(=N)N)C(=O)N[C@@H](CCCCN)C(=O)N2)NC(=O)[C@H](CSSC[C@@H](C(=O)N[C@@H](CCCCN)C(=O)N[C@@H](Cc2ccc(O)cc2)C(=O)N[C@H](C(=O)N[C@@H](Cc2ccccc2)C(=O)N[C@@H](Cc2c[nH]c4ccccc24)C(=O)O)C(C)C)NC(=O)[C@H](Cc2c[nH]c4ccccc24)NC(=O)[C@H](CCCNC(=N)N)NC(=O)[C@H](Cc2c[nH]cn2)NC(=O)[C@H]([C@@H](C)O)NC(=O)[C@H](CCCNC(=N)N)NC(=O)[C@H](CO)NC3=O)NC(=O)[C@H](CCCCN)NC(=O)[C@H](CC(=O)O)NC(=O)[C@H](CC(N)=O)NC(=O)[C@H](CC(=O)O)NC(=O)[C@@H]2CCCN2C1=O` [compound 813] (H-DCLGAFRKCIPDNDKCCRPNLVCSRTHRWCKYVFW-OH; disulfide 2-17, 9-23, 16-30), for which the IC50 in experiment [1], in experiment [2] and in experiment [3] was greater than 5000 nM each time.
